The subject of data set [1] is thymus. Kind of data set: AHR agonist induced thymus regression in FVB male mice. Format: in vivo, mouse. Conditions: mouse, in vivo, po, 30 mg/kg/day. As for the experimental part:
To evaluate AHR agonist induced thymus regression, groups of five 4-week old FVB male mice from Jackson Laboratory were treated with either vehicle, Linomide, TasQ, or its analogs daily by orally gavage for 2 weeks and then the thymus removed and weighted.
Oral Drug treatment. TasQ at the indicated dose was initially dissolved with equal molar 1 N sodium hydroxide. This solution was diluted with sterile water and the mixture stirred for 1 hr. The pH was then adjusted with 1 N HCl to 8.9 and 200 μL given daily via oral gavage.
This means that in the clinical setting, dose-escalation above 1 mg/d of TasQ as needed to reach this >2 μM blood level for optimal anti-cancer efficacy will also enhance unwanted off-target AHR induction. Therefore, a medicinal chemical approach was undertaken to identify third generation quinoline-3-carboxamide analogs with increased HDAC4 inhibition, but with reduced AHR agonism. The approach taken is based upon the earlier SPR analysis documenting that TasQ linked to the surface chip via its aniline-N is a potent binder of HDAC4. Thus, a series of quinoline-3-carboxamide analogs were synthesized focusing upon adduct changes at the aniline-N. These analogs were synthesized as described in Example 1, and were initially screened for their AHR agonist activity using the in vitro human cell-based ARE-driven luciferase reporter gene assay (Table 3).

Data set [2] has as its system LvCaP-3 human prostate cancer PDXs. Kind of data set: In vivo growth of LvCaP-3 xenografts in castrate hosts. The settings on record: daily oral 10 mg/kg. The source says: (§1) Prostate Cancer Models. The source, history, and characteristics of the human prostate cancer cell lines and PDXs used, as well as cell culture conditions for their in vitro maintenance and the in vivo protocol for xenograft growth in triple immune-deficient NSG (i.e. NOD.Cg-PrkdcScidIl2rgtmlWji/Szj), adult (>8 week old) male mice obtained from the Sidney Kimmel Comprehensive Cancer Center (SKCCC) Animal Core Facility are described previously (Isaacs 2013; Brennen et al. JCI Insight. 2021, 6(8):e146827; Zhu et al. Oncogene 2020, 39(45): 6935-6949). […] In vitro growth curves were determined as described (Isaacs 2013). In vivo growth response to oral daily TasQ (10 mg/kg/d) of TRAMP-C2 mouse prostate cancers was evaluated in C57BL/6J syngeneic wild type vs. NOX-2 vs. iNOS null male mice obtained from Jackson Laboratory (Bar Harbor, ME). Growth response to oral daily TasQ (10 mg/kg/d) of TRAMP-C2 and B6CaP mouse prostate cancers was also evaluated in S100A9 null C57BL′6J male mice obtained from Dmitry Gabrilovich (Wistar Institute). […] In vitro growth curves were determined as described (Isaacs 2013). Growth response to daily oral TasQ vs. ESATA-20 (both at 10 mg/kg/d) of Myc-CaP-CR mouse prostate cancer was evaluated in syngeneic FVB/NJ castrate male mice from Jackson Laboratory. […]

For data set [3], the system named is CWR-22Rv1 parental wild type cells. Briefly: In vivo growth of CWR-22Rv1 parental wild type xenografts. The settings on record: daily oral 10 mg/kg/d. More on the design: species or system human.
Description: as §1

In data set [4] the test system is CWR-22Rv1 dominant-positive mutant HIF-1α cells. Briefly: In vivo growth of CWR-22Rv1 xenografts expressing dominant-positive mutant HIF-1α. The settings on record: daily oral 10 mg/kg/d. On the set-up: species or system human.
Description: as §1

For data set [5], the system named is prostate cancer xenografts. The settings on record: daily oral 10 mg/kg/d; cited from earlier work.
Data set [6] concerns the target S100A9 (Homo sapiens, UniProt P06702). Conditions: Kallberg et al. 2012; cited from earlier work.

Sequence of S100A9 (P06702 whole entry, species assumed): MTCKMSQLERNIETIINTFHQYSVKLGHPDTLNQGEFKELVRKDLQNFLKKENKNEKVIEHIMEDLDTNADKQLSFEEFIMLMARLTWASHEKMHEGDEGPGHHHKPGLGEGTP

`COc1cccc2c1c(O)c(C(=O)N(c1ccc(C(F)(F)F)cc1)C1CCCCC1)c(=O)n2C` [ESATA-20]: the “induction of thymus regression” value in data set [1] is listed as “lack of induction”.

With `COc1cccc2c1c(O)c(C(=O)N(C)c1ccc(C(F)(F)F)cc1)c(=O)n2C` [TasQ, Tasquinimod], the “inhibition of growth of LvCaP-3 xenografts at the end of study” value in data set [2] is “⅔”. Moreover, in data set [3], the “growth inhibition of wild type xenografts” value is reported as greater than 80%. Besides, the “growth inhibition of dominant-positive mutant HIF-1α tumors” value in data set [4] is on record as less than 25%. Also, in data set [5], the enhancement of hypoxia is greater than 2 fold and the “pO2 in the TME” value is 1.4+/−1.0 mmHg. For the same compound, the “affinity to S100A9” value in data set [6] is reported as “nanomolar (nM) affinity”.

The values above are taken from patent publication US20250059139A1, “COMPOUNDS FOR TREATMENT OF CANCER” (THE JOHNS HOPKINS UNIVERSITY, priority 2021, published 2025).
